Like-named read-outs stand apart in the source and are kept apart here. [ ]: non-standard residue; d: D form. Nva = CCC[C@H](N)C(=O)O
What was measured:
[1] = Oral glucose tolerance test after single intravenous injection in mice; assay type: in vivo; conditions: mice fasted 4 hours, intravenous injection 10 minutes before oral glucose load 1 g/kg
Procedure: The oral glucose load was 1 g glucose/kg body weight. Blood glucose levels were measured with a glucometer at time −30 minutes, 0 (right before the oral glucose load), 15, 30, 60 and 90 minutes after the oral glucose load. Mice were euthanized after the time 90 minutes.

[2] = Stability in human plasma at 37° C.; assay type: in vitro ADME; conditions: for % of Time 0 / remaining at 1 h, 1000 ng/ml / remaining at 8 h, 1000 ng/ml / remaining at 22 h, 1000 ng/ml: 1000 ng/ml; for % of Time 0: 0.00 hrs, N=3; for remaining at 1 h, 1000 ng/ml / remaining at 8 h, 1000 ng/ml / remaining at 22 h, 1000 ng/ml: N=3, read-out: % of Time 0; for resistance to proteolytic degradation compared with GLP1 peptide: 8 and 22 hours of incubation
Procedure: The stability and resistance to proteolytic degradation of a number of ALY688-GLP1v fusion peptides were assessed following incubation in human plasma at 37° C.
HPLC (Supelco Discovery BIO Wide Pore C5-3 (2.1×50 mm) with a slow gradient to separate possible degradation products) was used to quantify each peptide. High resolution mass spectrometry (Thermo Q Exactive) Plus was used to collect full scan and MS2 spectra to characterize any possible degradants. The data were evaluated both manually and using Proteome Discoverer data mining software.
In the above tables, Temperature=37° C., Concentration=1000 ng/ml, and N=3/time point.

[3] = Pharmacokinetic profile in mice after single subcutaneous injection; assay type: in vivo; conditions: 10 mg/kg; for AUC(0-t) / Cmax / Tmax: mouse, sc, plasma
Procedure: GLP1v peptide (with Gly8 substitution) and GLP1v fusion peptides were administered once by subcutaneous injection (concentration=10 mg/kg). Blood was collected into K2EDTA tubes containing a cocktails of protease inhibitors (DPP-4 and Aprotinin). The Bioanalytical Method BAM.0634.01 was used for the quantitation of GLP1v and GLP1v fusion peptides in K2EDTA mouse plasma. It is based on protein precipitation extraction followed by LC-MS/MS instrumental analysis and covers a measurement range from 1.00 to 1000 ng/mL. Samples were analyzed on a Waters Acquity liquid chromatograph interfaced with a Thermo Scientific TSQ Vantage triple quadrupole mass spectrometer with ESI ionization.

[4] = system: P38MAPK (T180/Y182) phosphorylation; conditions: L6 murine skeletal muscle cells, ALY688 alone, previously shown; cited from earlier work

Row | Compound | blood glucose levels after glucose load [1] | % of Time 0 [2] | remaining at 1 h, 1000 ng/ml [2] | remaining at 8 h, 1000 ng/ml [2] | remaining at 22 h, 1000 ng/ml [2] | resistance to proteolytic degradation compared with GLP1 peptide [2] | change in AUC / total exposure compared with GLP1v peptide [3] | AUC(0-t) [3] | Cmax [3] | Tmax [3] | change in Tmax compared with GLP1v peptide [3] | remaining at 1 h, 1000 ng/ml ([2]; human plasma (K2EDTA)) | remaining at 8 h, 1000 ng/ml ([2]; human plasma (K2EDTA)) | remaining at 22 h, 1000 ng/ml ([2]; human plasma (K2EDTA)) | P38MAPK (T180/Y182) phosphorylation [4]
1 | CCC[C@H](NC(=O)[C@@H]1CCCN1C(=O)[C@@H](NC(=O)[C@H](N)CC(N)=O)[C@@H](C)CC)C(=O)N[C@@H](CC(C)C)C(=O)N[C@@H](Cc1ccc(O)cc1)C(=O)N[C@H](CO)C(=O)N[C@@H](Cc1ccccc1)C(=O)N[C@@H](C)C(=O)N[C@H](CO)C(=O)NCC(=O)NCC(=O)NCC(=O)NCCCC[C@H](NC(=O)[C@H](C)NC(=O)[C@H](C)NC(=O)[C@H](CCC(N)=O)NC(=O)CNC(=O)[C@H](CCC(=O)O)NC(=O)[C@H](CC(C)C)NC(=O)[C@H](Cc1ccc(O)cc1)NC(=O)[C@H](CO)NC(=O)[C@H](CO)NC(=O)[C@@H](NC(=O)[C@H](CC(=O)O)NC(=O)[C@H](CO)NC(=O)[C@@H](NC(=O)[C@H](Cc1ccccc1)NC(=O)[C@@H](NC(=O)CNC(=O)[C@H](CCC(=O)O)NC(=O)CNC(=O)[C@@H](N)Cc1c[nH]cn1)[C@@H](C)O)[C@@H](C)O)C(C)C)C(=O)N[C@@H](CCC(=O)O)C(=O)N[C@@H](Cc1ccccc1)C(=O)N[C@H](C(=O)N[C@@H](C)C(=O)N[C@@H](Cc1c[nH]c2ccccc12)C(=O)N[C@@H](CC(C)C)C(=O)N[C@H](C(=O)N[C@@H](CCCCN)C(=O)NCC(=O)N[C@@H](CCCNC(=N)N)C(N)=O)C(C)C)[C@@H](C)CC [ALY688-GLP1v(Lys26)] | greater glucose lowering action | 100% | 99% | 74% | 40% | better resistance to proteolytic degradation | two-fold increase | 1020 ng·h/mL | 1610 ng/mL | 10 min | – | – | – | – | –
2 | CCC[C@H](NC(=O)[C@@H]1CCCN1C(=O)[C@@H](NC(=O)[C@H](N)CC(N)=O)[C@@H](C)CC)C(=O)N[C@@H](CC(C)C)C(=O)N[C@@H](Cc1ccc(O)cc1)C(=O)N[C@H](CO)C(=O)N[C@@H](Cc1ccccc1)C(=O)N[C@@H](C)C(=O)N[C@H](CO)C(=O)NCC(=O)NCC(=O)NCC(=O)NCCCC[C@H](NC(=O)[C@H](C)NC(=O)[C@H](C)NC(=O)[C@H](CCC(N)=O)NC(=O)CNC(=O)[C@H](CCC(=O)O)NC(=O)[C@H](CC(C)C)NC(=O)[C@H](Cc1ccc(O)cc1)NC(=O)[C@H](CO)NC(=O)[C@H](CO)NC(=O)[C@@H](NC(=O)[C@H](CC(=O)O)NC(=O)[C@H](CO)NC(=O)[C@@H](NC(=O)[C@H](Cc1ccccc1)NC(=O)[C@@H](NC(=O)CNC(=O)[C@H](CCC(=O)O)NC(=O)CNC(=O)[C@@H](N)Cc1c[nH]cn1)[C@@H](C)O)[C@@H](C)O)C(C)C)C(=O)N[C@@H](CCC(=O)O)C(=O)N[C@@H](Cc1ccccc1)C(=O)N[C@H](C(=O)N[C@@H](C)C(=O)N[C@@H](Cc1c[nH]c2ccccc12)C(=O)N[C@@H](CC(C)C)C(=O)N[C@H](C(=O)N[C@@H](CCCCNC(=O)CNC(=O)CNC(=O)CNC(=O)[C@@H](CO)NC(=O)[C@H](C)NC(=O)[C@H](Cc1ccccc1)NC(=O)[C@@H](CO)NC(=O)[C@H](Cc1ccc(O)cc1)NC(=O)[C@H](CC(C)C)NC(=O)[C@H](CCC)NC(=O)[C@@H]1CCCN1C(=O)[C@@H](NC(=O)[C@H](N)CC(N)=O)[C@@H](C)CC)C(=O)NCC(=O)N[C@@H](CCCNC(=N)N)C(N)=O)C(C)C)[C@@H](C)CC [ALY688-GLP1v(Lys26,34)] | – | – | – | – | – | – | decrease in total exposure | 358 ng·h/mL | 372 ng/mL | 15 min | further increase in the Tmax | – | – | – | –
3 | CCC[C@H](NC(=O)[C@@H]1CCCN1C(=O)[C@@H](NC(=O)[C@H](N)CC(N)=O)[C@@H](C)CC)C(=O)N[C@@H](CC(C)C)C(=O)N[C@@H](Cc1ccc(O)cc1)C(=O)N[C@H](CO)C(=O)N[C@@H](Cc1ccccc1)C(=O)N[C@@H](C)C(=O)N[C@H](CO)C(=O)NCC(=O)NCC(=O)NCC(=O)NCCCC[C@H](NC(=O)[C@@H](NC(=O)[C@H](CC(C)C)NC(=O)[C@H](Cc1c[nH]c2ccccc12)NC(=O)[C@H](C)NC(=O)[C@@H](NC(=O)[C@H](Cc1ccccc1)NC(=O)[C@H](CCC(=O)O)NC(=O)[C@H](CCCCN)NC(=O)[C@H](C)NC(=O)[C@H](C)NC(=O)[C@H](CCC(N)=O)NC(=O)CNC(=O)[C@H](CCC(=O)O)NC(=O)[C@H](CC(C)C)NC(=O)[C@H](Cc1ccc(O)cc1)NC(=O)[C@H](CO)NC(=O)[C@H](CO)NC(=O)[C@@H](NC(=O)[C@H](CC(=O)O)NC(=O)[C@H](CO)NC(=O)[C@@H](NC(=O)[C@H](Cc1ccccc1)NC(=O)[C@@H](NC(=O)CNC(=O)[C@H](CCC(=O)O)NC(=O)CNC(=O)[C@@H](N)Cc1c[nH]cn1)[C@@H](C)O)[C@@H](C)O)C(C)C)[C@@H](C)CC)C(C)C)C(=O)NCC(=O)N[C@@H](CCCNC(=N)N)C(N)=O [ALY688-GLP1v(Lys34)] | greater glucose lowering action | 100% | 95% | 74% | 49% | better resistance to proteolytic degradation | decrease in total exposure | 177 ng·h/mL | 267 ng/mL | 15 min | further increase in the Tmax | – | – | – | –
4 | CC[C@H](C)[C@H](NC(=O)[C@H](Cc1ccccc1)NC(=O)[C@H](CCC(=O)O)NC(=O)[C@H](CCCCN)NC(=O)[C@H](C)NC(=O)[C@H](C)NC(=O)[C@H](CCC(N)=O)NC(=O)CNC(=O)[C@H](CCC(=O)O)NC(=O)[C@H](CC(C)C)NC(=O)[C@H](Cc1ccc(O)cc1)NC(=O)[C@H](CO)NC(=O)[C@H](CO)NC(=O)[C@@H](NC(=O)[C@H](CC(=O)O)NC(=O)[C@H](CO)NC(=O)[C@@H](NC(=O)[C@H](Cc1ccccc1)NC(=O)[C@@H](NC(=O)CNC(=O)[C@H](CCC(=O)O)NC(=O)CNC(=O)[C@@H](N)Cc1cnc[nH]1)[C@@H](C)O)[C@@H](C)O)C(C)C)C(=O)N[C@@H](C)C(=O)N[C@@H](Cc1c[nH]c2ccccc12)C(=O)N[C@@H](CC(C)C)C(=O)N[C@H](C(=O)N[C@@H](CCCCN)C(=O)NCC(=O)N[C@@H](CCCNC(=N)N)C(N)=O)C(C)C [GLP1v with Gly8 substitution, reference compound] | expected glucose-lowering activity | 100% | – | – | – | – | – | 525 ng·h/mL | 781 ng/mL | 5 min | – | 85% | 41% | 24% | –
5 | H-DAsn-Ile-Pro-Nva-Leu-Tyr-DSer-Phe-Ala-DSer-NH2 (H-[dN]IP[Nva]LY[dS]FA[dS]-NH2; SMILES CCC[C@H](NC(=O)[C@@H]1CCCN1C(=O)[C@@H](NC(=O)[C@H](N)CC(N)=O)[C@@H](C)CC)C(=O)N[C@@H](CC(C)C)C(=O)N[C@@H](Cc1ccc(O)cc1)C(=O)N[C@H](CO)C(=O)N[C@@H](Cc1ccccc1)C(=O)N[C@@H](C)C(=O)N[C@H](CO)C(N)=O) [ALY688, 10 amino acid chemically synthesized adiponectin receptor agonist peptide, reference compound] | no glucose effect | – | – | – | – | – | – | – | – | – | – | – | – | – | increased

— patent US20230021946A1, “MONOMERIC FUSION PEPTIDES AND METHOD OF USE THEREOF” (priority 2021, published 2023)
